The target in this assay is T1, human GPBAR1 receptor (Homo sapiens, UniProt Q8TDU6).
T1 construct: expressed in transfected cells
T1 sequence (Q8TDU6 1-330): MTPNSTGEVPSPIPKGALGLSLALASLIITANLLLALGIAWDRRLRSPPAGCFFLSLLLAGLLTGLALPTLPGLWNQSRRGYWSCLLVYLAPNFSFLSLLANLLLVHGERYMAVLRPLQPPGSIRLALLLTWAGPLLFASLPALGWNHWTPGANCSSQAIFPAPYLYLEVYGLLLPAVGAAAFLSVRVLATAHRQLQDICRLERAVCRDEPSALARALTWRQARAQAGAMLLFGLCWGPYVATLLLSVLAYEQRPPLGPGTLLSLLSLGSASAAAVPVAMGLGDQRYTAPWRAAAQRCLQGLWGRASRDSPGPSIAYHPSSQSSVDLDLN
As to the kind of experiment: functional cAMP assay in CHO-dhfr(minus) cells expressing human GPBAR1 receptors. In kind it is cell-based. The following applies: human EC50, functional cAMP assay, 30 min at 30° C. Here is the method:
The final clone was verified by DNA sequence analysis. The plasmid was transfected into CHO cells deficient in dihydrofolate reductase activity (CHO-dhfr−) using Lipofectamine plus (Invitrogen). Clones were isolated in limited dilution conditions and identified by activities in the cAMP assay using lithocholic acid as agonist.
The growth medium was exchanged with Krebs Ringer Bicarbonate buffer with 1 mM IBMX and incubated at 30° C. for 30 min. Compounds were added to a final assay volume of 100 μl and incubated for 30 min at 30° C. […] The time-resolved energy transfer is measured by a TRF reader (Evotec Technologies GmbH, Hamburg Germany), equipped with a ND:YAG laser as excitation source.
EC50 values were determined using Activity Base analysis (ID Business Solution, Limited). […] Specificity for GPBAR1 was tested in non-transfected CHO cells in the same assay as above.

Molecules are shown by their SMILES.

As for `Cc1cc(/C(CC(c2ccc(/C=C/C(=O)O)cc2)c2ccccc2C)=N\O)ccn1` (racemic) [Example 87, 3-{4-[3-[Hydroxyimino]-3-(2-methyl-pyridin-4-yl)-1-o-tolyl-propyl]-phenyl}-acrylic acid], the concentration for a half-maximal effect (EC50) (usually the midpoint of the concentration-response curve) is 241 nM.

The compound `Cc1cc(C(CC(c2ccc(CCCO)cc2)c2ccccc2C)=NO)ccn1` (racemic) [Example 88, 3-[4-(3-Hydroxy-propyl)-phenyl]-1-(2-methyl-pyridin-4-yl)-3-o-tolyl-propan-1-one oxime] displayed an EC50 of 12 nM.

Take `Cc1cc(C(CC(c2ccc(-c3ccc(C(=O)NCCC(=O)O)cc3)cc2)c2ccccc2C)=NO)ccn1` (racemic) [Example 89, 3-({4′-[3-[Hydroxyimino]-3-(2-methyl-pyridin-4-yl)-1-o-tolyl-propyl]-biphenyl-4-carbonyl}-amino)-propionic acid]: it took 7 nM to reach a half-maximal effect (EC50).

In turn, `Cc1cc(C(CC(c2ccc(-c3ccc(C(=O)NCC(=O)O)cc3)cc2)c2ccccc2C)=NO)ccn1` (racemic) [Example 90, ({4′-[3-[Hydroxyimino]-3-(2-methyl-pyridin-4-yl)-1-o-tolyl-propyl]-biphenyl-4-carbonyl}-amino)-acetic acid] gave an EC50 of 10 nM.

Take `Cc1cc(C(C[C@@H](c2ccc(-c3ccc(C(=O)N[C@@H](C)C(=O)O)cc3)cc2)c2ccccc2C)=NO)ccn1` (racemic) [Example 95, (S)-2-({4′-[(S)-3-[Hydroxyimino]-3-(2-methyl-pyridin-4-yl)-1-o-tolyl-propyl]-biphenyl-4-carbonyl}-amino)-propionic acid]: the concentration giving a half-maximal response (EC50) was found to be 39 nM.

In turn, `Cc1cc(C(C[C@@H](c2ccc(-c3ccc(C(=O)N[C@H](C)c4ccccc4)cc3)cc2)c2ccccc2C)=NO)ccn1` (racemic) [Example 97, 4′-[(S)-3-[Hydroxyimino]-3-(2-methyl-pyridin-4-yl)-1-o-tolyl-propyl]-biphenyl-4-carboxylic acid ((R)-1-phenyl-ethyl)-amide] came in with an EC50 of 177 nM.

Compound `Cc1cc(C(CC(c2cccc(Br)c2)c2ccccc2C)=NO)ccn1` (racemic) [Example 98, 3-(3-Bromo-phenyl)-1-(2-methyl-pyridin-4-yl)-3-o-tolyl-propan-1-one oxime] displayed a 50% effective concentration (EC50) of 146 nM.

`Cc1cc(C(CC(c2cccc(-c3ccc(C(=O)O)nc3)c2)c2ccccc2C)=NO)ccn1` (racemic) [Example 99, 5-{3-[3-[Hydroxyimino]-3-(2-methyl-pyridin-4-yl)-1-o-tolyl-propyl]-phenyl}-pyridine-2-carboxylic acid] returned an EC50 of 5050 nM.

`COC(=O)c1ccc(-c2cccc(C(CC(=NO)c3ccnc(C)c3)c3ccccc3C)c2)cc1F` (racemic) [Example 100, 3-Fluoro-3′-[3-[hydroxyimino]-3-(2-methyl-pyridin-4-yl)-1-o-tolyl-propyl]-biphenyl-4-carboxylic acid methyl ester] registered an EC50 of 514 nM.

The compound `Cc1cc(C(CC(c2cccc(-c3cccc(C(=O)O)c3)c2)c2ccccc2C)=NO)ccn1` (racemic) [Example 102, 3′-[3-[Hydroxyimino]-3-(2-methyl-pyridin-4-yl)-1-o-tolyl-propyl]-biphenyl-3-carboxylic acid] came in with a concentration giving a half-maximal response (EC50) of 323 nM.

In turn, `Cc1cc(C(CC(c2cccc(-c3ccc(S(C)(=O)=O)cc3)c2)c2ccccc2C)=NO)ccn1` (racemic) [Example 104, 3-(4′-Methanesulfonyl-biphenyl-3-yl)-1-(2-methyl-pyridin-4-yl)-3-o-tolyl-propan-1-one oxime] registered an EC50 of 578 nM.

The compound `Cc1cc(C(CC(c2cccc(C#CCO)c2)c2ccccc2C)=NO)ccn1` (racemic) [Example 106, 3-[3-(3-Hydroxy-prop-1-ynyl)-phenyl]-1-(2-methyl-pyridin-4-yl)-3-o-tolyl-propan-1-one oxime] had an EC50 of 255 nM.

Take `Cc1cc(C(CC(c2cccc(CCCO)c2)c2ccccc2C)=NO)ccn1` (racemic) [Example 107, 3-[3-(3-Hydroxy-propyl)-phenyl]-1-(2-methyl-pyridin-4-yl)-3-o-tolyl-propan-1-one oxime]: it took 153 nM to reach a half-maximal effect (EC50).
